Measurements taken from PubChem BioAssay AID1320 (NMMLSC, 2008).
Active and inactive are the calls of the source. How the calls were made is not given here.

Target: Bcl-2-related protein A1 (Homo sapiens) (UniProt Q16548)
Assay: inhibitors of Bim binding to Bfl-1, dose response, biochemical, multiplexed, bead-based flow cytometry (AID 1320); further: test concentration not given here
Conditions: Bim peptide-Bfl-1 binding, fluorescence

Bcl-2-related protein A1 (Homo sapiens), sequence (Q16548 whole entry, looked up): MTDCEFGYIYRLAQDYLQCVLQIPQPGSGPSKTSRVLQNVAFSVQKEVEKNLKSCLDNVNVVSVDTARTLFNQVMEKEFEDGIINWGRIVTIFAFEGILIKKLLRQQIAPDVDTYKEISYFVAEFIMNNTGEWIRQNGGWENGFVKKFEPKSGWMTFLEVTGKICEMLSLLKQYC

CCc1nn2cc(C(=O)c3cc(C)ccc3O)cnc2c1-c1ccc(F)cc1
percent span (inhibition): inactive

CCOc1cc(CNc2ccc(N(C)C)cc2)cc(Br)c1OCC(=O)NC(C)(C)C
percent span (inhibition): inactive

CC(C)CNC(=O)c1cccc(NC(=O)c2ccc(Cl)c([N+](=O)[O-])c2)c1
percent span (inhibition): inactive

O=C(COc1ccccc1Br)NCc1ccccn1
percent span (inhibition): inactive

CC(C(=O)Nc1ccc([N+](=O)[O-])cc1)N1CCN(C/C=C/c2ccccc2)CC1 (stereo not given)
percent span (inhibition): inactive

COc1cccc(/C=N/Nc2nn3cnnc3c3ccccc23)c1O
percent span (inhibition): inactive

O=C(OCc1nc2ccccc2[nH]1)C12CC3CC(CC(C3)C1)C2
percent span (inhibition): inactive

Cc1nn(-c2ccc(Cl)cc2)c(Cl)c1/C=C(\C#N)C(N)=O
percent span (inhibition): inactive

CC1(C(=O)N(CC(=O)NC2CCCC2)Cc2ccco2)CC(=O)N=C2C=CC=CN21 (stereo not given)
percent span (inhibition): inactive

COc1ccc(S(=O)(=O)NCCOc2cccc3cccnc23)cc1OC
percent span (inhibition): inactive

C(=C\c1ccccc1)/CSc1nnc(-c2ccccn2)n1Cc1ccco1
percent span (inhibition): inactive

CCN1CCN(c2ccc(NC(=O)c3ccc4c(c3)[nH]c(=O)n4Cc3ccc(OC)cc3)cc2)CC1
percent span (inhibition): inactive

Cc1ccc(SCCC(=O)Nc2ccc(Br)c(C)c2)cc1
percent span (inhibition): inactive

COc1ccc(NC(=O)c2c(F)cccc2F)cc1S(=O)(=O)Nc1ccc(Br)cc1
percent span (inhibition): inactive

CC(C)=C1C(=O)NN(c2ccc(C)c(Cl)c2)C1=O
percent span (inhibition): inactive

O=c1nc2c(O)cccn2c2c1c(=O)[nH]c1ccccc12
percent span (inhibition): inactive

O=C(/C=C/c1ccc(-c2ccccc2)o1)c1ccccc1
percent span (inhibition): inactive

COc1ccc(-c2csc(NC(=O)/C(N=Nc3ccccc3)=C(\C)O)n2)cc1
percent span (inhibition): inactive

CCSc1ncc(Cl)c(C(=O)Nc2sc3c(c2C(=O)NCc2cccnc2)CCCC3)n1
percent span (inhibition): inactive

O=C(O)c1cccc(NC2=C(Cl)C(=O)c3ccccc3C2=O)c1
percent span (inhibition): inactive

CNC(=S)N(Cc1cccs1)Cc1cc2ccc(OC)cc2[nH]c1=O
percent span (inhibition): inactive

Cc1ccc(N=c2ssnc2Cl)cc1
percent span (inhibition): inactive

CCOc1ccccc1NC(=O)CSc1nnc2ccc(-c3cccnc3)nn12
percent span (inhibition): inactive

COc1ccccc1C1=Nc2cccc3cccc(c23)N1
percent span (inhibition): inactive

O=C(NCCc1ccccc1)c1ccc2nc(-c3ccco3)c(-c3ccco3)nc2c1
percent span (inhibition): inactive

Cc1ccc(Nc2nc(C)cs2)cc1
percent span (inhibition): inactive

Fc1ccccc1/C=C1\CCCC2=C1NC(=S)NC2c1ccccc1F (stereo not given)
percent span (inhibition): inactive

COC(=O)c1ccc(-n2nnnc2SCC(=O)Nc2cc(OC)ccc2OC)cc1
percent span (inhibition): inactive

COc1ccccc1NC(=O)CSc1ncn(-c2ccccc2)n1
percent span (inhibition): inactive

O=C(c1cccc(Br)c1)N1CCN(c2cnn(-c3ccccc3)c(=O)c2Cl)CC1
percent span (inhibition): inactive

COc1cc(N2CCOCC2)ccc1C=C1C(=O)NC(=O)NC1=O
percent span (inhibition): inactive

Cc1sc(NC(=O)Cn2cnnn2)nc1-c1ccc(Cl)cc1
percent span (inhibition): inactive

CCN(CC)c1ccc(NC(=O)COc2ccccc2C)cc1S(=O)(=O)Nc1ccccc1OC
percent span (inhibition): inactive

O=[N+]([O-])c1ccc(-c2cn(-c3ccc(Cl)cc3)c(=S)[nH]2)cc1
percent span (inhibition): inactive

CN=C(NC1CCCCC1)c1ccc(Cl)cc1
percent span (inhibition): inactive

O=C(CCCN1C(=O)c2cccc3cccc(c23)C1=O)N1CCN(c2ccccn2)CC1
percent span (inhibition): inactive

CC(C)CCN1CCN(Cc2cccc3cccnc23)CC1CCO (stereo not given)
percent span (inhibition): inactive

S=C(Nc1ccccc1)N1CCn2cccc2C1c1cccnc1 (stereo not given)
percent span (inhibition): inactive

Cn1c(N)c(C(=O)COC(=O)c2cc(-c3ccco3)nc3ccccc23)c(=O)n(Cc2ccccc2)c1=O
percent span (inhibition): inactive

CC1Nc2ccccc2C(=O)N1NS(C)(=O)=O (stereo not given)
percent span (inhibition): inactive

Cc1occc1C(=O)NNC(=S)NCc1ccccc1
percent span (inhibition): inactive

CCNC(=S)Nc1cc(OCC)c(NC(=O)c2cccs2)cc1OCC
percent span (inhibition): inactive

O=C1/C(=C/c2cccs2)Sc2ccccc21
percent span (inhibition): inactive

Cc1ccc(-n2nc(C)c(C(=O)O)n2)c(C)c1
percent span (inhibition): inactive

Cc1ccc(-n2[nH]c(C)c(/C=N/Nc3ccc([N+](=O)[O-])cc3[N+](=O)[O-])c2=O)cc1C
percent span (inhibition): inactive

Cc1cc(C)nc(SCc2cc(=O)c(OC(=O)c3cccc([N+](=O)[O-])c3)co2)n1
percent span (inhibition): inactive

O=C(Nc1cccc(Cl)c1)Nc1ccnc(-c2cccnc2)n1
percent span (inhibition): inactive

Cc1cc(C)cc(NS(=O)(=O)c2ccc3c(c2)c(=O)n(C)c(=O)n3C)c1
percent span (inhibition): inactive

Cc1ccc(-c2cc(-c3ccccc3Cl)c(C#N)c(N)n2)o1
percent span (inhibition): inactive

Cn1c(=O)c2cc(S(=O)(=O)Nc3cc(C(=O)O)cc(C(=O)O)c3)ccc2n(C)c1=O
percent span (inhibition): inactive

CCOCCCNc1nc(=S)[nH]c2cc(OC)c(OC)cc12
percent span (inhibition): inactive

O=C(NCC1CCCO1)c1ccc2c(=O)n(-c3ccc(F)cc3)c(=S)[nH]c2c1 (stereo not given)
percent span (inhibition): inactive

O=C(CSc1ccc2nnc(-c3ccncc3)n2n1)Nc1nccs1
percent span (inhibition): inactive

CN(C)C(=O)N1CCC(C(=O)NC2CCCCCCC2)CC1
percent span (inhibition): inactive

COc1ccc(N2C(=O)C(Cl)=C(Nc3ccccc3O)C2=O)cc1
percent span (inhibition): inactive

Cc1ccccc1-n1nc(SCC(=O)O)sc1=S
percent span (inhibition): inactive

CCN1CCN(c2cc(C)c3cc(NC(=S)N4CC(C)CC(C)C4)ccc3n2)CC1 (stereo not given)
percent span (inhibition): inactive

COCc1cc(CN2CCCC(CNC(=O)c3ccc(F)cc3)C2)ccc1OC (stereo not given)
percent span (inhibition): inactive

CC(CCc1ccccc1)NC(=O)C1CCN(S(=O)(=O)N2CCCCC2)CC1 (stereo not given)
percent span (inhibition): inactive

CCOCCCn1c(N)c(C(=O)Nc2sc3c(c2C(=O)OC)CCCC3)c2nc3ccccc3nc21
percent span (inhibition): inactive

c1cncc(-c2nnc3n2N=C(c2cccs2)CS3)c1
percent span (inhibition): inactive

Cc1cccc(-n2c(-c3ccncc3)n[nH]c2=S)c1
percent span (inhibition): inactive

O=S1(=O)N=C(N(CCO)/N=C/c2ccncc2)c2ccccc21
percent span (inhibition): inactive

COc1cc(/C=C2/NC(=O)N(Cc3ccccc3F)C2=O)cc(OC)c1O
percent span (inhibition): inactive

CCOc1ccc(C2=Nn3c(nnc3-c3ccccn3)SC2)cc1
percent span (inhibition): inactive

Cc1ccnc(SCc2cc(=O)c(OC(=O)c3ccc(Cl)c([N+](=O)[O-])c3)co2)n1
percent span (inhibition): inactive

CN1CCS/C1=C/C=C1/SC(=S)N(Cc2ccccc2)C1=O
percent span (inhibition): inactive

Cn1c(N)c(C(=O)COC(=O)c2cncc(Br)c2)c(=O)n(C)c1=O
percent span (inhibition): inactive

O=C1c2ccccc2-c2onc3ccc(NCc4ccco4)c1c23
percent span (inhibition): inactive

COc1ccccc1Oc1ccc2c(c1)C(=O)N(c1ccccc1)C2=O
percent span (inhibition): inactive

CCN(CC)c1nc(N)nc(N(c2ccccc2)c2ccccc2)n1
percent span (inhibition): inactive

COc1cccc(NC(=O)CSc2nncn2N)c1
percent span (inhibition): inactive

O=C(NC1=NCCS1)NC12CC3CC(CC(C3)C1)C2
percent span (inhibition): inactive

O=[N+]([O-])c1cccc(S(=O)(=O)NCC2CCCO2)c1 (stereo not given)
percent span (inhibition): inactive

CN(C)CCNC(=O)C(=O)C1C(=O)Nc2ccccc21 (stereo not given)
percent span (inhibition): inactive

Cc1ccnc(NS(=O)(=O)c2ccc(NC(=O)c3c(-c4ccccc4Cl)noc3C)cc2)n1
percent span (inhibition): inactive

Cc1cc(N2CCN(C)CC2)nc2ccc(NC(=S)N3CCCCC3)cc12
percent span (inhibition): inactive

Cc1ccnc(Nc2nc(-c3c(C)nc4sccn34)cs2)c1
percent span (inhibition): inactive

CN1CCN(c2ccccc2N)CC1
percent span (inhibition): inactive

COc1ccc(NC(=O)/C(Cl)=C(/Cl)S(=O)Cc2ccccc2)cn1 (stereo not given)
percent span (inhibition): inactive

Cc1cc(-c2nnc3n2N=C(c2ccc(-c4ccccc4)cc2)CS3)n[nH]1
percent span (inhibition): inactive

Cc1cccc(NC(=S)N2CCn3cccc3C2c2cccnc2)c1 (stereo not given)
percent span (inhibition): inactive

O=C1NCCN1C(=O)N(c1ccccc1)c1ccccc1
percent span (inhibition): inactive

C/C(=N\NC(=O)COc1ccc(C#N)cc1)c1ccccc1OC(F)F
percent span (inhibition): inactive

CC[n+]1c(/C=C/C=C/N(C(C)=O)c2ccccc2)sc2ccccc21
percent span (inhibition): inactive

CCOc1ccc2nc(SCC(=O)N3c4ccccc4Sc4ccccc43)c(C#N)cc2c1
percent span (inhibition): inactive

N=C1C(c2nc3ccccc3s2)=C(O)CN1Cc1ccccc1
percent span (inhibition): inactive

COc1ccc(NS(=O)(=O)c2cc(NC(=O)c3ccc(C)o3)ccc2N2CCCCC2)cc1
percent span (inhibition): inactive

COc1cc(/C=C2\S/C(=N/S(=O)(=O)c3ccc(C)cc3)NC2=O)c([N+](=O)[O-])cc1OC
percent span (inhibition): inactive

COC(=O)c1ccc(/C=N/NC(=O)CC(=O)NCc2cccnc2)cc1
percent span (inhibition): inactive
